Data reported in ChEMBL document CHEMBL1201862, “PubChem BioAssay data set” (2004).
Active and inactive are the calls of the source. Rule as the data show it: actives have a measured IC50 and inactives only a lower limit.

Target: Envelope glycoprotein gp160 (Human immunodeficiency virus 1, UniProt Q6QLK5)
Assay: cell-free HIV fusion peptide-binding blockers – biochemical, uHTS, fluorescence dequenching, […] (AID 1986)

Sequence of Envelope glycoprotein gp160 (Q6QLK5 whole entry, the tested form may be a part): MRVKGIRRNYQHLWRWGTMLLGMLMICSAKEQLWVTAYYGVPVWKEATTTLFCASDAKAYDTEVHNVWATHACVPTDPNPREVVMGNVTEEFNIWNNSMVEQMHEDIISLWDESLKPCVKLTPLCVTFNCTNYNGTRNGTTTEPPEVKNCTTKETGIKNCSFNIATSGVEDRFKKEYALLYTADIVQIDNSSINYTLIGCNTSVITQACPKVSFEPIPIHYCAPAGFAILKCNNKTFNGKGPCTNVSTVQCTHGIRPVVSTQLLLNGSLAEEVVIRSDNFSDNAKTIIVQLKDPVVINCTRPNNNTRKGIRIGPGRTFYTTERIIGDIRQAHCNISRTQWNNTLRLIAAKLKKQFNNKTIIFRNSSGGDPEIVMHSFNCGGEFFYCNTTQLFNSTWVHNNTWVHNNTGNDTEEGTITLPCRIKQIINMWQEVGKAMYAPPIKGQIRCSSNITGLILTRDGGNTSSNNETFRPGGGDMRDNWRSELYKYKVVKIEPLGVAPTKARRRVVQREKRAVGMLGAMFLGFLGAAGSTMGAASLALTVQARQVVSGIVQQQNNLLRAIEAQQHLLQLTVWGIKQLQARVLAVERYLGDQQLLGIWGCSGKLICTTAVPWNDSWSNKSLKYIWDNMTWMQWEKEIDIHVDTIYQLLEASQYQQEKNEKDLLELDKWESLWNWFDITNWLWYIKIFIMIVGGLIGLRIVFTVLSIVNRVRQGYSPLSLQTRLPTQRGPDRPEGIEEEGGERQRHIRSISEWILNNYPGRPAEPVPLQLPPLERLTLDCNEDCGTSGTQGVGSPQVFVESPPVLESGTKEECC

**Q.** COc1cc(/C=C(\C#N)c2nc3cc(C)ccc3[nH]2)cc([N+](=O)[O-])c1O was tested. Which IC50 did it give?
**A.** 18.7 µM (active)

**Q.** For CCc1ccc(/C=C2\SC(=S)N(CCCC(=O)Nc3ccccc3C(=O)O)C2=O)cc1, which IC50 is on record?
**A.** 12.4 µM (active)

**Q.** For CCOc1ccc(C2C(C(=O)Nc3ccccc3)=C(C)N=c3s/c(=C/c4cccc(OCC(=O)O)c4)c(=O)n32)cc1 (stereo not drawn), which IC50 is on record?
**A.** 28.8 µM (active)
